Reference: PubChem BioAssay (NCI)
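96-well plates; 48 h exposure; 5 concentrations. Endpoints by linear interpolation between flanking doses. Not reached: highest tested concentration assigned. TGI: concentration producing complete growth inhibition.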

Tests used:
Experiment in all cases: NCI tumour cell line growth inhibition, 48 h
A549 NSCLC = tested on: A549 NSCLC
ACHN renal = tested on: ACHN renal
NCI-H460 lung = tested on: NCI-H460 lung
SR leukemia = tested on: SR leukemia
LXFL 529 NSCLC = tested on: LXFL 529 NSCLC
786-0 renal = tested on: 786-0 renal
OVCAR-5 ovarian = tested on: OVCAR-5 ovarian
MOLT-4 leukemia = tested on: MOLT-4 leukemia
RXF-631 renal = tested on: RXF-631 renal
SNB-19 CNS = tested on: SNB-19 CNS
M14 melanoma = tested on: M14 melanoma
K-562 leukemia = tested on: K-562 leukemia
EKVX NSCLC = tested on: EKVX NSCLC
OVCAR-8 ovarian = tested on: OVCAR-8 ovarian
HCC-2998 colon = tested on: HCC-2998 colon
UO-31 renal = tested on: UO-31 renal
OVCAR-4 ovarian = tested on: OVCAR-4 ovarian
TK-10 renal = tested on: TK-10 renal
HCT-116 colon = tested on: HCT-116 colon
HOP-18 NSCLC = tested on: HOP-18 NSCLC
SF-295 CNS = tested on: SF-295 CNS
UACC-62 melanoma = tested on: UACC-62 melanoma
U251 CNS = tested on: U251 CNS
OVCAR-3 ovarian = tested on: OVCAR-3 ovarian
NCI-H522 lung = tested on: NCI-H522 lung
M19-MEL melanoma = tested on: M19-MEL melanoma
CCRF-CEM leukemia = tested on: CCRF-CEM leukemia
DLD-1 colon = tested on: DLD-1 colon
SF-539 CNS = tested on: SF-539 CNS
NCI-H23 lung = tested on: NCI-H23 lung
SW-620 colon = tested on: SW-620 colon
DMS 114 small cell lung = tested on: DMS 114 small cell lung
HOP-62 NSCLC = tested on: HOP-62 NSCLC
LOX IMVI melanoma = tested on: LOX IMVI melanoma
NCI-H226 lung = tested on: NCI-H226 lung
CAKI-1 renal = tested on: CAKI-1 renal
KM12 colon = tested on: KM12 colon
HCT-15 colon = tested on: HCT-15 colon
SN12C renal = tested on: SN12C renal
IGROV1 ovarian = tested on: IGROV1 ovarian
SK-MEL-5 melanoma = tested on: SK-MEL-5 melanoma
RXF 393 renal = tested on: RXF 393 renal
UACC-257 melanoma = tested on: UACC-257 melanoma
HT29 colon = tested on: HT29 colon
SK-OV-3 ovarian = tested on: SK-OV-3 ovarian
SK-MEL-28 melanoma = tested on: SK-MEL-28 melanoma
XF 498 CNS = tested on: XF 498 CNS
RPMI-8226 leukemia = tested on: RPMI-8226 leukemia
MALME-3M melanoma = tested on: MALME-3M melanoma
HL-60(TB) leukemia = tested on: HL-60(TB) leukemia
SF-268 CNS = tested on: SF-268 CNS
HOP-92 NSCLC = tested on: HOP-92 NSCLC
SK-MEL-2 melanoma = tested on: SK-MEL-2 melanoma
SNB-78 CNS = tested on: SNB-78 CNS
KM20L2 colon = tested on: KM20L2 colon
DMS 273 small cell lung = tested on: DMS 273 small cell lung
A498 renal = tested on: A498 renal
COLO 205 colon = tested on: COLO 205 colon
SNB-75 CNS = tested on: SNB-75 CNS

`CCOC(=O)C(=O)Nc1ccc([N+](=O)[O-])cc1C#N` was tested, and the TGI (A549 NSCLC) was > 100 µM, the TGI (ACHN renal) was > 100 µM and the TGI (NCI-H460 lung) was > 100 µM. The TGI (SR leukemia) was > 100 µM, the TGI (LXFL 529 NSCLC) was > 100 µM and the TGI (786-0 renal) was > 100 µM. For the same compound, the TGI (OVCAR-5 ovarian) was > 100 µM, the TGI (MOLT-4 leukemia) was > 100 µM and the TGI (RXF-631 renal) was > 100 µM. The TGI (SNB-19 CNS) was > 100 µM, the TGI (M14 melanoma) was > 100 µM and the TGI (K-562 leukemia) was > 100 µM. The TGI (EKVX NSCLC) was > 100 µM, the TGI (OVCAR-8 ovarian) was > 100 µM and the TGI (HCC-2998 colon) was > 100 µM. For the same compound, the TGI (UO-31 renal) was > 100 µM, the TGI (OVCAR-4 ovarian) was > 100 µM and the TGI (TK-10 renal) was > 100 µM. For the same compound, the TGI (HCT-116 colon) was > 100 µM, the TGI (HOP-18 NSCLC) was > 100 µM and the TGI (SF-295 CNS) was > 100 µM. For the same compound, the TGI (UACC-62 melanoma) was > 100000 nM, the TGI (U251 CNS) was > 100 µM and the TGI (OVCAR-3 ovarian) was > 100 µM. The TGI (NCI-H522 lung) was > 100 µM, the TGI (M19-MEL melanoma) was > 100 µM and the TGI (CCRF-CEM leukemia) was > 100 µM. For the same compound, the TGI (DLD-1 colon) was > 100 µM, the TGI (SF-539 CNS) was > 100 µM and the TGI (NCI-H23 lung) was > 100 µM. The TGI (SW-620 colon) was > 100 µM, the TGI (DMS 114 small cell lung) was > 100 µM and the TGI (HOP-62 NSCLC) was > 100 µM. For the same compound, the TGI (LOX IMVI melanoma) was > 100 µM, the TGI (NCI-H226 lung) was > 100 µM and the TGI (CAKI-1 renal) was > 100 µM. For the same compound, the TGI (KM12 colon) was > 100 µM, the TGI (HCT-15 colon) was > 100 µM and the TGI (SN12C renal) was > 100 µM. For the same compound, the TGI (IGROV1 ovarian) was > 100 µM, the TGI (SK-MEL-5 melanoma) was > 100 µM and the TGI (RXF 393 renal) was > 100 µM. For the same compound, the TGI (UACC-257 melanoma) was > 100000 nM, the TGI (HT29 colon) was > 100 µM and the TGI (SK-OV-3 ovarian) was > 100 µM. The TGI (SK-MEL-28 melanoma) was > 100 µM, the TGI (XF 498 CNS) was > 100 µM and the TGI (RPMI-8226 leukemia) was > 100 µM. For the same compound, the TGI (MALME-3M melanoma) was > 100 µM, the TGI (HL-60(TB) leukemia) was > 100 µM and the TGI (SF-268 CNS) was > 100 µM. For the same compound, the TGI (HOP-92 NSCLC) was > 100 µM and the TGI (SK-MEL-2 melanoma) was > 100 µM.

`CCCCC1(OC(=O)CCC(=O)O)CCC2(CCC(C)C(C/C=C(C)/C=C/C(O)C(C)/C=C/C(=O)O)O2)OC1CC/C(C)=C/C(=O)O` (configuration not stated) was tested, and the TGI (A549 NSCLC) was 36.6 µM, the TGI (ACHN renal) was 26.2 µM and the TGI (NCI-H460 lung) was 18.4 µM. The TGI (SR leukemia) was > 48.7 µM, the TGI (SNB-78 CNS) was 7.75 µM and the TGI (KM20L2 colon) was 46.8 µM. It also gave a TGI (LXFL 529 NSCLC) of 3.83 µM, a TGI (786-0 renal) of 14.3 µM and a TGI (OVCAR-5 ovarian) of 14.4 µM. The TGI (MOLT-4 leukemia) was 26.9 µM, the TGI (RXF-631 renal) was 5.7 µM and the TGI (SNB-19 CNS) was 11.8 µM. For the same compound, the TGI (M14 melanoma) was 4.52 µM, the TGI (K-562 leukemia) was 9.99 µM and the TGI (EKVX NSCLC) was 25.7 µM. The TGI (OVCAR-8 ovarian) was 7.67 µM, the TGI (HCC-2998 colon) was 9.98 µM and the TGI (UO-31 renal) was 8.14 µM. It also gave a TGI (OVCAR-4 ovarian) of 7.78 µM, a TGI (DMS 273 small cell lung) of 18.2 µM and a TGI (TK-10 renal) of 58.5 µM. The TGI (HCT-116 colon) was > 50.4 µM, the TGI (HOP-18 NSCLC) was 29.8 µM and the TGI (SF-295 CNS) was 15.8 µM. The TGI (UACC-62 melanoma) was 2620 nM, the TGI (U251 CNS) was 15.6 µM and the TGI (OVCAR-3 ovarian) was 11.2 µM. It also gave a TGI (NCI-H522 lung) of 7.72 µM, a TGI (M19-MEL melanoma) of 7.95 µM and a TGI (CCRF-CEM leukemia) of 27.4 µM. For the same compound, the TGI (DLD-1 colon) was 13.8 µM, the TGI (SF-539 CNS) was 3.51 µM and the TGI (NCI-H23 lung) was 3.49 µM. It also gave a TGI (SW-620 colon) of 39.8 µM, a TGI (DMS 114 small cell lung) of 8.56 µM and a TGI (HOP-62 NSCLC) of 4.96 µM. For the same compound, the TGI (LOX IMVI melanoma) was 3.27 µM, the TGI (NCI-H226 lung) was 6.1 µM and the TGI (A498 renal) was 12.6 µM. The TGI (CAKI-1 renal) was 15.3 µM, the TGI (KM12 colon) was 11.8 µM and the TGI (HCT-15 colon) was 12.4 µM. It also gave a TGI (SN12C renal) of 9.2 µM, a TGI (IGROV1 ovarian) of 4.89 µM and a TGI (SK-MEL-5 melanoma) of 3.14 µM. The TGI (RXF 393 renal) was 4.58 µM, the TGI (UACC-257 melanoma) was 2570 nM and the TGI (HT29 colon) was 43.6 µM. It also gave a TGI (COLO 205 colon) of 35.1 µM, a TGI (SK-OV-3 ovarian) of 25.4 µM and a TGI (SK-MEL-28 melanoma) of 5.07 µM. The TGI (XF 498 CNS) was 4.66 µM, the TGI (RPMI-8226 leukemia) was > 37.3 µM and the TGI (SNB-75 CNS) was 6.74 µM. The TGI (MALME-3M melanoma) was 20.3 µM, the TGI (HL-60(TB) leukemia) was 24.5 µM and the TGI (SF-268 CNS) was 7.22 µM. It also gave a TGI (HOP-92 NSCLC) of 4.74 µM and a TGI (SK-MEL-2 melanoma) of 3.18 µM.
